Measurements as given in ChEMBL document CHEMBL2321785, “Synthesis and SAR study of new thiazole derivatives as vascular adhesion protein-1 (VAP-1) inhibitors for the treatment of diabetic macular edema” (Bioorg Med Chem, 2013).
The source made the active and inactive calls. The calls are words filed in the database; no cut-off is given here.

What was measured:
[1] = target: T1, Amine oxidase [copper-containing] 3 (Homo sapiens, UniProt Q16853); experiment: Inhibition of human VAP1 expressed in CHO cells using [14C]-benzylamine as substrate incubated for 30 mins prior to substrate addition measured after 1 hr by scintillation spectrophotometric analysis; type: cell-based
T1 sequence (Q16853 whole entry): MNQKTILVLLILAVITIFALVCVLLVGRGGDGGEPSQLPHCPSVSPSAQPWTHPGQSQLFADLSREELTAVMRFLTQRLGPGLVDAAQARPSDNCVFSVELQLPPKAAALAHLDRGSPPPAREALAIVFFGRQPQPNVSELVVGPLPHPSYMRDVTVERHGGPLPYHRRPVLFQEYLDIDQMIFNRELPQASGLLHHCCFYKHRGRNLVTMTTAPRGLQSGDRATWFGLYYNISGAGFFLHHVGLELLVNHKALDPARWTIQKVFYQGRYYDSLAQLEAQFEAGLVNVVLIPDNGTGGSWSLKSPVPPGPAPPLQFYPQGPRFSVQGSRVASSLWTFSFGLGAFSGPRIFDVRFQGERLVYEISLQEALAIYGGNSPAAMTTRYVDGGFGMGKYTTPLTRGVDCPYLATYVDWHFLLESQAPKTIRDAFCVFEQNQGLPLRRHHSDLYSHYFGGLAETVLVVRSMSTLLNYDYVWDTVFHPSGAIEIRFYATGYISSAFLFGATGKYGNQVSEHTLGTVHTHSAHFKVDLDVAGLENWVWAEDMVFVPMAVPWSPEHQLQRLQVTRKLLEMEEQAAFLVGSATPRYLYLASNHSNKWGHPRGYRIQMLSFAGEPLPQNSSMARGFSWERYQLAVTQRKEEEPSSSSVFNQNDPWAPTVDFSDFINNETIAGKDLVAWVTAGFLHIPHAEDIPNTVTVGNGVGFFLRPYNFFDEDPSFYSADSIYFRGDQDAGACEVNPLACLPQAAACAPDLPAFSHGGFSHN

Rattus norvegicus [2] = experiment: Inhibition of VAP1-mediated ocular permeability in streptozotocin-induced Sprague-Dawley rat diabetic model assessed as fluorescein leakage in vitreous at 1 to 10 mg/kg, sc administered daily for 4 weeks post streptozotocin challenge measured 24 hrs post last dose by fluorescence assay; type: functional, organism-based
Plasma [3] = experiment: Plasma concentration in Wistar rat at 0.1 mg/kg, sc after 0.5 to 6 hrs by LC-MS analysis; type: ADME, organism-based; design: dose 0.1 mg/kg, route subcutaneous; conditions: in vivo
Rattus norvegicus [4] = experiment: Inhibition of VAP1 in streptozotocin-induced Wistar rat diabetic model using [14C]-benzylamine as substrate assessed as [14C]-benzylaldehyde formation in plasma at >/= 0.1 mg/kg, sc after 1 hr by liquid scintillation counting analysis; type: functional, organism-based; design: dose 0.1 mg/kg
Plasma [5] = experiment: Plasma concentration in sc dosed Wistar rat after 0.5 to 6 hrs by LC-MS analysis; type: ADME, organism-based; conditions: in vivo
Homo sapiens [6] = species on record: Homo sapiens; experiment: Selectivity ratio of IC50 for human MAOB to IC50 for human VAP1
Homo sapiens [7] = species on record: Homo sapiens; experiment: Selectivity ratio of IC50 for human DAO to IC50 for human VAP1
[8] = Selectivity ratio of IC50 for human VAP1 to IC50 for rat VAP1
[9] = target: T2, Amine oxidase [copper-containing] 3 (Rattus norvegicus, UniProt O08590); experiment: Inhibition of rat VAP1 expressed in CHO cells using [14C]-benzylamine as substrate incubated for 30 mins prior to substrate addition measured after 1 hr by scintillation spectrophotometric analysis; type: cell-based
T2 sequence (O08590 whole entry): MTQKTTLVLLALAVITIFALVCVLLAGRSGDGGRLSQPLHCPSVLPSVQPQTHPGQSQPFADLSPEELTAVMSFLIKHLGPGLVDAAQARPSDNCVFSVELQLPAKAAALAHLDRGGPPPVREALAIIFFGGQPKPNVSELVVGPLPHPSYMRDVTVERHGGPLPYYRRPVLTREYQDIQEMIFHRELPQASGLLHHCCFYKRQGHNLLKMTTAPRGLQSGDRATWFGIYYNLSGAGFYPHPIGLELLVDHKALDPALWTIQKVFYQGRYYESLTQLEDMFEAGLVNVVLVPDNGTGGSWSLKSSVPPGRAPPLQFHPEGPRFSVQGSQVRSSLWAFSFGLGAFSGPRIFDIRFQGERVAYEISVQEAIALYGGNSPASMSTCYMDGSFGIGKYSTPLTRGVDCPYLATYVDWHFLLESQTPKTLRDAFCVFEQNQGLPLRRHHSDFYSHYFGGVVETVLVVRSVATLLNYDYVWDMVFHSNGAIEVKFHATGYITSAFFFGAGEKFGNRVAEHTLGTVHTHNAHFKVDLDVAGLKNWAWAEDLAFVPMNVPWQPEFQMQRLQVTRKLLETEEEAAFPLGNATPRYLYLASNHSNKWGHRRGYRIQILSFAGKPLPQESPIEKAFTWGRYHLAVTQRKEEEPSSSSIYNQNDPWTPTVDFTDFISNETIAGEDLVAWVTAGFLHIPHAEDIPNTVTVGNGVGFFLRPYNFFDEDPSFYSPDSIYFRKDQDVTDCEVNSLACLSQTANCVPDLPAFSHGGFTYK

[10] = target: T3, Amine oxidase [flavin-containing] B (Homo sapiens, UniProt P27338); experiment: Inhibition of human MAOB expressed in CHO cells using benzylamine as substrate after 1 hr by fluorometric assay; type: cell-based
T3 sequence (P27338 whole entry): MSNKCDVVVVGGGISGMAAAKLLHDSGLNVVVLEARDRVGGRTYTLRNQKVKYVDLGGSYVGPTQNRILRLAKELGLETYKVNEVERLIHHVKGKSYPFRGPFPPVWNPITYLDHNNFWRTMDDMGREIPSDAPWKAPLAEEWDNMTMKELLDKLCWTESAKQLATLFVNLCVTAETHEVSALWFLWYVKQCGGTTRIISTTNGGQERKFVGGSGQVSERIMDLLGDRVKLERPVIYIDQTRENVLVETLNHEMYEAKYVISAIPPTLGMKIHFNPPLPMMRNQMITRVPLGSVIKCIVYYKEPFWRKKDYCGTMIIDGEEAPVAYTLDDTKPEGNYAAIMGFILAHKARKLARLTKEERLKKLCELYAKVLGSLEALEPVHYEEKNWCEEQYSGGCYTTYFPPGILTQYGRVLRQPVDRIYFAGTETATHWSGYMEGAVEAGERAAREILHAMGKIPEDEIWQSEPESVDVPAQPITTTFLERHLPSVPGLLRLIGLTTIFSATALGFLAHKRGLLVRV

Row | SMILES | IC50 [1] [µM] | also measured
1 | CC(=O)Nc1nc(CCc2ccc(NC(N)=S)cc2)cs1 | > 10 | –
2 | CC(=O)Nc1ncc(CCc2ccc(NC(=N)N)cc2)s1 | 9.6 | –
3 | CC(=O)Nc1cccc(CCc2ccc(NC(=N)N)cc2)c1 | 15 | –
4 | CSC(=N)Nc1ccc(CCc2csc(NC(C)=O)n2)cc1 | 1.1 | –
5 | CC(=O)Nc1nc(CCc2ccc(NC3=NCCN3)cc2)cs1 | 3 | –
6 | CC(=O)Nc1nc(-c2ccc(CCNC(=N)N)cc2)cs1 | 0.33 | –
7 | CC(=O)Nc1nc(CCc2ccc(NC=N)cc2)cs1 | 0.73 | –
8 | CC(=O)Nc1nc(CCc2ccc(NC3=NCCS3)cc2)cs1 | 3.5 | –
9 | N=C(N)Nc1ccc(CCc2csc(NC(=O)c3ccccc3)n2)cc1 | 11 | –
10 | CCNC(=N)Nc1ccc(CCc2csc(NC(C)=O)n2)cc1 | 0.68 | –
11 | CC(=O)Nc1nc(CCCc2ccc(NC(=N)N)cc2)cs1 | 8.8 | –
12 | N=C(N)Nc1ccc(CCc2csc(N)n2)cc1 | 22 | –
13 | CC(=O)Nc1nc(CCc2ccc(N)cc2)cs1 | > 100 | –
14 | CC(=O)Nc1nc(Cc2ccc(NC(=N)N)cc2)cs1 | 42 | –
15 | CC(=O)Nc1ccc(CCc2ccc(NC(=N)N)cc2)cc1 | 18 | –
16 | CC(=O)Nc1nc(CCc2ccc(NC(=N)N)cc2)cs1 | 0.23 | inhibition (Rattus norvegicus [2]): Active; Cp (Plasma [3]): 21.8 ng/mL; inhibition (Rattus norvegicus [4]): Active; Cp (Plasma [5]): Dose-dependent effect; Ratio IC50 (Homo sapiens [6]): > 435; Ratio IC50 (Homo sapiens [7]): > 435; Ratio IC50 [8]: 16; IC50 [9]: 0.014 µM; IC50 [10]: > 100 µM
17 | CC(C)C(=O)Nc1nc(CCc2ccc(NC(=N)N)cc2)cs1 | 0.52 | –
18 | CC(=O)Nc1nc(CCc2ccc(NC(=N)N(C)C)cc2)cs1 | > 100 | –
19 | CC(=O)Nc1nc(CCc2ccc(N=C(N)NC(C)C)cc2)cs1 | 1.1 | –
20 | CC(=O)Nc1nc(CCc2ccc(CCN)cc2)cs1 | 5 | –
